Experimental data taken from patent US20150071989A1, “LIPOSOMES FOR HEMATOLOGICAL TUMORS” (University of Tennessee Research Foundation, priority 2013, published 2015).

How the values were obtained:
Jurkat cells = assay: MTT cell viability assay, in vitro cytotoxicity in CD22- Jurkat cells; type: cell-based; conditions: Homo sapiens
Description: FIG. 14A is a graph showing the in vitro cytotoxicity of targeted, drug-loaded liposomes (solid line, “CD22 Targeted NP”) and untargeted, drug-loaded liposomes (dotted line, “Untargeted NP”) in Jurkat cells after 24 hours. The Jurkat cells lack the cell surface antigen (CD22) to which the antibody of the targeted liposomes binds. For comparison, the in vitro cytotoxic effects of free (solution) drug (N-benzyladriamycin-14-valerate (AD198)) are also shown (dashed line, “Solution Drug”). Cytotoxicity is expressed as percentage (%) cell kill as measured via (3-(4,5-dimethylthiazol-2-yl)-2,5-diphenyltetrazolium bromide (MTT) cell viability assay. The data represents the average of three measurements; the error bars represent±standard deviation.
FIG. 15A is a graph showing the in vitro cytotoxicity of targeted, drug-loaded liposomes (solid line, “CD22 Targeted NP”) and untargeted, drug-loaded liposomes (dotted line, “Untargeted NP”) in Jurkat cells after 48 hours. […] Cytotoxicity is expressed as percentage (%) cell kill as measured via (3-(4,5-dimethylthiazol-2-yl)-2,5-diphenyltetrazolium bromide (MTT) assay. The data represents the average of three measurements; the error bars represent±standard deviation.
In vitro efficacy of the liposomes was also studied using the MTT assay to assess cell viability. […] IC50 concentrations were also calculated for the solution drug and the targeted liposome. […]

Daudi cells = assay: MTT cell viability assay, in vitro cytotoxicity in CD22+ Daudi cells; type: cell-based; conditions: Homo sapiens
Description: FIG. 14B is a graph showing the in vitro cytotoxicity of targeted, drug-loaded liposomes (solid line, “CD22 Targeted NP”) and untargeted, drug-loaded liposomes (dotted line, “Untargeted NP”) in Daudi cells after 24 hours. The Daudi cells have the cell surface antigen (CD22) to which the antibody of the targeted liposomes binds. For comparison, the in vitro cytotoxic effects of free (solution) drug (N-benzyladriamycin-14-valerate (AD198)) are also shown (dashed line, “Solution Drug”). Cytotoxicity is expressed as percentage (%) cell kill as measured via (3-(4,5-dimethylthiazol-2-yl)-2,5-diphenyltetrazolium bromide (MIT) cell viability assay. The data represents the average of three measurements; the error bars represent±standard deviation.
FIG. 15B is a graph showing the in vitro cytotoxicity of targeted, drug-loaded liposomes (solid line, “CD22 Targeted NP”) and untargeted, drug-loaded liposomes (dotted line, “Untargeted NP”) in Daudi cells after 48 hours. The Daudi cells have the cell surface antigen (CD22) to which the antibody of the targeted liposomes binds. […] Cytotoxicity is expressed as percentage (%) cell kill as measured via (3-(4,5-dimethylthiazol-2-yl)-2,5-diphenyltetrazolium bromide (MTT) cell viability assay. The data represents the average of three measurements; the error bars represent±standard deviation. […]

Structure (SMILES): CCCCC(=O)OCC(=O)[C@]1(O)Cc2c(O)c3c(c(O)c2[C@@H](O[C@H]2C[C@H](NCc4ccccc4)[C@H](O)[C@H](C)O2)C1)C(=O)c1c(OC)cccc1C3=O [AD198, N-benzyladriamycin-14-valerate]
- IC50 (Jurkat cells; Jurkat cells (CD22-), 24 hours): 1050 nM
- IC50 (Jurkat cells; Jurkat cells, 48 hours): 100 nM
- IC50 (Daudi cells; Daudi cells (CD22+), 24 hours): 250 nM
- IC50 (Daudi cells; Daudi cells, 48 hours): 100 nM
